Consider seven compounds from ChEMBL document CHEMBL3860033, “Recent advances of cytotoxic chalconoids targeting tubulin polymerization: Synthesis and biological activity” (Eur J Med Chem, 2016).

Experiment [1] in a line: Displacement of [3H]-colchicine from porcine tubulin. Further details: species or system Sus scrofa. For orientation: Displacement assays read how much labelled ligand stays bound in the presence of the test substance.
The nature of experiment [2]: Inhibition of porcine brain tubulin polymerization by spectrophotometric method. Further details: species or system Sus scrofa.
Experiment [3] is described as follows: Cytotoxicity against human NCI60 cells after 48 hrs by SRB assay. To be noted: NCI60, 48 h. The experiment is classed as functional. For orientation: In SRB staining, fixed cells bind dye roughly in proportion to their protein.
The nature of experiment [4]: Cytotoxicity against human SW620 cells assessed as decrease in cell viability after 24 to 48 hrs by CCK8 assay. To be noted: SW-620. Type of experiment: functional, cell-based. (Formazan colour is commonly taken as a measure of viable cells.)
The species named for a further experiment is Ovis aries. The experiment in a line: Binding affinity to lamb brain tubulin using ultracentrifuge by absorbance assay.
Experiment [5] can be described thus: Cytotoxicity against human Capan1 cells assessed as decrease in cell viability after 24 to 48 hrs by CCK8 assay. The experiment is classed as functional, cell-based. To be noted: CAPAN-1.
Experiment [6] is described as follows: Cytotoxicity against human K562 cells assessed as growth inhibition after 5 days by MTT assay. Type of experiment: functional, cell-based. To be noted: K562, 120 h.
Experiment [7] is described as follows: Cytotoxicity against human HCT116 cells assessed as decrease in cell viability after 72 hrs by MTT assay. The experiment is classed as functional, cell-based. The settings on record: HCT-116, 72 h.
Experiment [8] is described as follows: Cytotoxicity against human HeLa cells assessed as decrease in cell viability after 72 hrs by MTT assay. The experiment is classed as functional, cell-based.
Experiment [9] in a line: Cytotoxicity against human A549 cells assessed as decrease in cell viability after 72 hrs by MTT assay. The experiment is classed as functional, cell-based. The settings on record: A549, 72 h.

As a reminder, the IC50 is the concentration at which inhibition is half-maximal. Usually GI50 stands for the concentration at which growth is held to half of that of the control. Read a low GI50 as greater sensitivity of the cells.

For `COc1ccc(/C=C2\Oc3c(cc(OC)c(OC)c3OC)C2=O)cc1O`, the IC50 stood at 60 µM in experiment [1] and 22 µM in experiment [2].

With `COc1cc(C(=O)C2OC2c2cc(OC)c(OC)c(OC)c2)cc(OC)c1OC` (stereo not given), the GI50 in experiment [3] is 14.1 µM.

On to `COc1cc(OC)c(/C=C/C(=O)c2c(O)ccc3ccccc23)c(OC)c1`, for which, in [4], the IC50 was determined as 14.5 µM.

As for `COc1cc(OC)c(C(=O)/C=C/c2cn(C)c3ccccc23)c(OC)c1`, the Kapp in the experiment listed under Ovis aries was determined as 2 ×10⁵ /M.

As to `COc1ccc(C(=O)/C=C/c2cccc3ccccc23)c(O)c1`, the IC50 in [5] is 5.2 µM.

On to `COc1ccc(C=C(C)C(=O)c2cc(OC)c(OC)c(OC)c2)cc1O`, for which the IC50 in [6] was determined as 0.2 nM.

With `CCOc1cc2c(cc1C(=O)/C=C/c1ccc(OC)c(O)c1)OCS2`, the IC50 in experiment [7], in experiment [8] and in [9] was 1 to 9 nM each time.
